Biological target: T1, human PF4 (Homo sapiens, UniProt P02776)
T1 construct: PF4 is a 70 amino acid, lysine-rich 7.8 kDa platelet-specific protein; made in house; host or cells: Escherichia coli BL21DE3 pLysS (pT7-7) and/or Drosophila S2 cells
T1 sequence (P02776 32-101): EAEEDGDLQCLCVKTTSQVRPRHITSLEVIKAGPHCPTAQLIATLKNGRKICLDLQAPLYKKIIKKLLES
Assay: Inhibition of PF4 tetramer formation (BS3 cross-linking, SDS-PAGE)
Type: biochemical
Settings: for IC50: read-out: IC50 of PF4 tetramer formation inhibition; for inhibition at 5 µM: 5 μM inhibitor; for inhibition at 5 µM / inhibition at 10 µM / inhibition at 1 µM / inhibition at 3 µM: read-out: % inhibition of PF4 tetramer formation at single concentration of inhibitor; for inhibition at 10 µM: 10 μM inhibitor (column A)
How it was run: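 Monomer, dimer, trimer and tetramer fractions were quantified by densitometry after reducing 12% SDS-PAGE of BS3-cross-linked (0.2 mM, 30 min, room temperature) PF4. Before cross-linking, 10 μg/ml E. coli-expressed human WT PF4 in PBS was exposed to compound for 15 min at 37° C or 60 min at room temperature; controls lacked compound.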

IC50 [µM]	inhibition at 5 µM [%]	inhibition at 10 µM [%]	inhibition at 1 µM (1 μM inhibitor) [%]	inhibition at 3 µM (3 μM inhibitor (column A)) [%]	Structure (SMILES)	also measured
3	–	–	–	–	CC(=O)NCC(=O)C1C(=O)c2ccc(Oc3ccc4c(c3)C(=O)C(C(=O)CNC(C)=O)C4=O)cc2C1=O (stereo not drawn) [Example 246, N-[2-(5-{[2-(2-acetamidoacetyl)-1,3-dioxo-2,3-dihydro-1H-inden-5-yl]oxy}-1,3-dioxo-2,3-dihydro-1H-inden-2-yl)-2-oxoethyl]acetamide]	% inhibition of PF4 tetramer formation at single concentration of inhibitor (1 μM inhibitor, 1 µM): 12%; % inhibition of PF4 tetramer formation at single concentration of inhibitor (3 μM inhibitor (column A), 3 µM): 30%
5	68	91	–	–	COC(=O)C(C)(C)CC(=O)C1C(=O)c2ccc(C(=O)c3ccc4c(c3)C(=O)C(C(=O)CC(C)(C)C(=O)OC)C4=O)cc2C1=O (stereo not drawn) [Example 219]	–
–	–	–	23	61	CC(C)C[C@@H](N)C(=O)C1C(=O)c2ccc(S(=O)(=O)c3ccc4c(c3)C(=O)C(C(=O)[C@H](N)CC(C)C)C4=O)cc2C1=O (stereo partly drawn) [Example 355, 2-[(2R)-2-amino-4-methylpentanoyl]-5-({2-[(2R)-2-amino-4-methylpentanoyl]-1,3-dioxo-2,3-dihydro-1H-inden-5-yl}sulfonyl)-2,3-dihydro-1H-indene-1,3-dione]	–
4.3	68	89	–	–	O=C(c1ccc2c(c1)C(=O)C(C(=O)Cn1cnnn1)C2=O)c1ccc2c(c1)C(=O)C(C(=O)Cn1cnnn1)C2=O (stereo not drawn) [Example 168, 5-{1,3-dioxo-2-[2-(1H-1,2,3,4-tetrazol-1-yl)acetyl]-2,3-dihydro-1H-indene-5-carbonyl}-2-[2-(1H-1,2,3,4-tetrazol-1-yl)acetyl]-2,3-dihydro-1H-indene-1,3-dione]	–
~4	–	–	–	–	O=C(NC1CC1)C1C(=O)c2ccc(Oc3ccc4c(c3)C(=O)C(C(=O)NC3CC3)C4=O)cc2C1=O (stereo not drawn) [Example 106, N-cyclopropyl-5-{[2-(cyclopropylcarbamoyl)-1,3-dioxo-2,3-dihydro-1H-inden-5-yl]oxy}-1,3-dioxo-2,3-dihydro-1H-indene-2-carboxamide]	–
1.4	–	–	–	–	O=C(O)CCC(=O)C1C(=O)c2ccc(C(=O)c3ccc4c(c3)C(=O)C(C(=O)CCC(=O)O)C4=O)cc2C1=O (stereo not drawn) [Example 130, 4-{5-[2-(3-carboxypropanoyl)-1,3-dioxo-2,3-dihydro-1H-indene-5-carbonyl]-1,3-dioxo-2,3-dihydro-1H-inden-2-yl}-4-oxobutanoic acid]	–
–	–	–	7	11	O=C(c1ccc2c(c1)C(=O)C(C(=O)C1CCCS1(=O)=O)C2=O)c1ccc2c(c1)C(=O)C(C(=O)C1CCCS1(=O)=O)C2=O (stereo not drawn) [Example 371, 2-{5-[2-(1,1-dioxo-1λ^6-thiolane-2-carbonyl)-1,3-dioxo-2,3-dihydro-1H-indene-5-carbonyl]-1,3-dioxo-2,3-dihydro-1H-indene-2-carbonyl}-1λ^6-thiolane-1,1-dione]	–
–	–	–	7	37	COC(=O)[C@H]1CCCC[C@H]1C(=O)C1C(=O)c2ccc(S(=O)(=O)c3ccc4c(c3)C(=O)C(C(=O)[C@@H]3CCCC[C@@H]3C(=O)OC)C4=O)cc2C1=O (stereo partly drawn) [Example 257, methyl (1S,2R)-2-[5-({2-[(1R,2S)-2-(methoxycarbonyl)cyclohexanecarbonyl]-1,3-dioxo-2,3-dihydro-1H-inden-5-yl}sulfonyl)-1,3-dioxo-2,3-dihydro-1H-indene-2-carbonyl]cyclohexane-1-carboxylate]	–
3	–	–	19	27	CCOCC(=O)C1C(=O)c2ccc(Oc3ccc4c(c3)C(=O)C(C(=O)COCC)C4=O)cc2C1=O (stereo not drawn) [Example 247, 2-(2-ethoxyacetyl)-5-{[2-(2-ethoxyacetyl)-1,3-dioxo-2,3-dihydro-1H-inden-5-yl]oxy}-2,3-dihydro-1H-indene-1,3-dione]	–
1.33	–	–	49	67	O=C1c2ccc(Oc3ccc4c(c3)C(=O)C(C(=O)[C@@H]3C[C@H]3C(=O)O)C4=O)cc2C(=O)C1C(=O)[C@@H]1C[C@H]1C(=O)O (stereo partly drawn) [Example 262, (1R,2R)-2-({5-[(2-{[(1R,2R)-2-carboxycyclopropyl](hydroxy)methylidene}-1,3-dioxo-2,3-dihydro-1H-inden-5-yl)oxy]-1,3-dioxo-2,3-dihydro-1H-inden-2-ylidene}(hydroxy)methyl)cyclopropane-1-carboxylic acid]	–
–	–	–	6	23	CC(=O)OC[C@H]1O[C@@H](OC(C)=O)[C@H](NC(=O)C2C(=O)c3ccc(C(=O)c4ccc5c(c4)C(=O)C(C(=O)N[C@H]4[C@H](OC(C)=O)O[C@H](COC(C)=O)[C@@H](OC(C)=O)[C@@H]4OC(C)=O)C5=O)cc3C2=O)[C@@H](OC(C)=O)[C@@H]1OC(C)=O (stereo partly drawn) [Example 398, [(2R,3S,4R,5R,6S)-3,4,6-tris(acetyloxy)-5-[5-(1,3-dioxo-2-{[(2S,3R,4R,5S,6R)-2,4,5-tris(acetyloxy)-6-[(acetyloxy)methyl]oxan-3-yl]carbamoyl}-2,3-dihydro-1H-indene-5-carbonyl)-1,3-dioxo-2,3-dihydro-1H-indene-2-amido]oxan-2-yl]methyl acetate]	–
3.4	75	94	–	–	N[C@H](C(=O)C1C(=O)c2ccc(C(=O)c3ccc4c(c3)C(=O)C(C(=O)[C@@H](N)C3CC3)C4=O)cc2C1=O)C1CC1 (stereo partly drawn) [Example 118, 2-[(2S)-2-amino-2-cyclopropylacetyl]-5-{2-[(2S)-2-amino-2-cyclopropylacetyl]-1,3-dioxo-2,3-dihydro-1H-indene-5-carbonyl}-2,3-dihydro-1H-indene-1,3-dione]	–

Second part, the compound before the results:

Structure (SMILES)	IC50 [µM]	inhibition at 5 µM [%]	inhibition at 10 µM [%]	inhibition at 1 µM (1 μM inhibitor) [%]	inhibition at 3 µM (3 μM inhibitor (column A)) [%]	also measured
O=C(c1ccc2c(c1)C(=O)C(C(=O)CC1CCCC1=O)C2=O)c1ccc2c(c1)C(=O)C(C(=O)CC1CCCC1=O)C2=O (stereo not drawn) [Example 261, 5-{1,3-dioxo-2-[2-(2-oxocyclopentyl)acetyl]-2,3-dihydro-1H-indene-5-carbonyl}-2-[2-(2-oxocyclopentyl)acetyl]-2,3-dihydro-1H-indene-1,3-dione]	1.32	–	–	67	77	–
CSCC[C@H](NC(=O)OC(C)(C)C)C(=O)C1C(=O)c2ccc(Oc3ccc4c(c3)C(=O)C(C(=O)[C@H](CCSC)NC(=O)OC(C)(C)C)C4=O)cc2C1=O (stereo partly drawn) [Example 270, tert-butyl N-[(2S)-1-[5-({2-[(2S)-2-{[(tert-butoxy)carbonyl]amino}-4-(methylsulfanyl)butanoyl]-1,3-dioxo-2,3-dihydro-1H-inden-5-yl}oxy)-1,3-dioxo-2,3-dihydro-1H-inden-2-yl]-4-(methylsulfanyl)-1-oxobutan-2-yl]carbamate]	–	–	–	10	24	–
CC(C)(C)OC(=O)N1CCC[C@H]1C(=O)C1C(=O)c2ccc(C(=O)c3ccc4c(c3)C(=O)C(C(=O)[C@@H]3CCCN3C(=O)OC(C)(C)C)C4=O)cc2C1=O (stereo partly drawn) [Example 111, tert-butyl (2S)-2-(5-{2-[(2S)-1-[(tert-butoxy)carbonyl]pyrrolidine-2-carbonyl]-1,3-dioxo-2,3-dihydro-1H-indene-5-carbonyl}-1,3-dioxo-2,3-dihydro-1H-indene-2-carbonyl)pyrrolidine-1-carboxylate]	0.5	100	100	–	–	–
Cc1ccc(NC(=O)C2C(=O)c3ccc(C(=O)c4ccc5c(c4)C(=O)C(C(=O)Nc4ccc(C)cc4)C5=O)cc3C2=O)cc1 (stereo not drawn) [Example 91, N-(4-methylphenyl)-5-{2-[(4-methylphenyl)carbamoyl]-1,3-dioxo-2,3-dihydro-1H-indene-5-carbonyl}-1,3-dioxo-2,3-dihydro-1H-indene-2-carboxamide]	–	20	35	–	–	–
O=C1CC(=O)c2cc(Oc3ccc4c(c3)C(=O)CC4=O)ccc21 [Example 7, 5-(2,3-dihydro-1,3dioxo-1h-inden-6-yloxy)-2,3-dihydro-1,3-dioxo-1h-indene]	1.12	–	–	–	–	–
O=C1c2ccc(S(=O)(=O)c3ccc4c(c3)C(=O)C(C(=O)C3CCCS3(=O)=O)C4=O)cc2C(=O)C1C(=O)C1CCCS1(=O)=O (stereo not drawn) [Example 372, 2-(5-{[2-(1,1-dioxo-1λ^6-thiolane-2-carbonyl)-1,3-dioxo-2,3-dihydro-1H-inden-5-yl]sulfonyl}-1,3-dioxo-2,3-dihydro-1H-indene-2-carbonyl)-1λ^6-thiolane-1,1-dione]	–	–	–	–	30	–
COc1ccc(NC(=O)C2C(=O)c3ccc(C(=O)c4ccc5c(c4)C(=O)C(C(=O)Nc4ccc(OC)cc4OC)C5=O)cc3C2=O)c(OC)c1 (stereo not drawn) [Example 96, N-(2,4-dimethoxyphenyl)-5-{2-[(2,4-dimethoxyphenyl)carbamoyl]-1,3-dioxo-2,3-dihydro-1H-indene-5-carbonyl}-1,3-dioxo-2,3-dihydro-1H-indene-2-carboxamide]	–	36	70	–	–	–
CC(C)(C)OC(=O)N1CC2(CC(C(=O)C3C(=O)c4ccc(C(=O)c5ccc6c(c5)C(=O)C(C(=O)C5CC7(C5)CN(C(=O)OC(C)(C)C)C7)C6=O)cc4C3=O)C2)C1 (stereo not drawn) [Example 131, tert-butyl 6-[5-(2-{2-[(tert-butoxy)carbonyl]-2-azaspiro[3.3]heptane-6-carbonyl}-1,3-dioxo-2,3-dihydro-1H-indene-5-carbonyl)-1,3-dioxo-2,3-dihydro-1H-indene-2-carbonyl]-2-azaspiro[3.3]heptane-2-carboxylate]	4.1	83	88	–	–	–
COc1ccc(NC(=O)C2C(=O)c3ccc(S(=O)(=O)c4ccc5c(c4)C(=O)C(C(=O)Nc4ccc(OC)cc4)C5=O)cc3C2=O)cc1 (stereo not drawn) [Example 35, 5,5′-sulphonylbis(1,3-dioxo-indan-2-carboxylic acid (4-methoxyphenyl)-amide)]	2.85	54	77	–	–	–

Source: patent US20250281424A1 (New York Blood Center, Inc, priority 2020, published 2025)
